Literature values as cited in US12121566B2, “Methods for treating gout” (Horizon Therapeutics USA, Inc., priority 2019, dated 2024).
Where two headings read alike, the source gives them in different places.

What was measured:
[1] = test system: patients treated with allopurinol; conditions: cited from earlier work
[2] = cited from earlier work
[3] = cited from earlier work; for detectable in urine: after 8 hours
serum proteins = conditions: cited from earlier work

SMILES | patients who develop allergic reactions [1] | severe hypersensitivity syndrome [1] | stability in solution ([2]; excess sodium hydroxide (0.1N), especially on warming) | solubility in water ([2]; may be dissolved with one molar equivalent of alkali) | stability in solution ([2]; neutral or acid pH) | detectable in urine [3] | oral absorption ([3]; oral administration) | bound to serum proteins (serum proteins)
Oc1ncnc2[nH]ncc12 [allopurinol] | Approximately 2% | about 0.4% | – | – | – | – | – | –
Cn1cnc([N+](=O)[O-])c1Sc1ncnc2nc[nH]c12 [azathioprine, 6-[(1-methyl-4-nitro-1H-imidazol-5-yl)thio]-1H-purine] | – | – | hydrolysis to mercaptopurine occurs | insoluble | stable | no azathioprine or mercaptopurine is detectable | well absorbed | 30%
Sc1ncnc2nc[nH]c12 [mercaptopurine, 6-mercaptopurine] | – | – | – | – | – | no azathioprine or mercaptopurine is detectable | – | 30%
